US20180235993A1 (priority 2000, published 2018)
Read-outs that look alike come from different tables or passages of the source.

Experiments:
[1] = Bioavailability assay in Cynomolgus monkeys; assay type: in vivo, Cynomolgus monkey; settings: for Mean Norm AUC: mean of 3 monkeys
Procedure: Within 1 week prior to the study initiation, the cynomolgus monkey was surgically implanted with a chronic venous catheter and subcutaneous venous access port (VAP) to facilitate blood collection and underwent a physical examination including hematology and serum chemistry evaluations and the body weight was recorded. Each monkey (six total), received approximately 250 uCi of ^3H activity with each dose of active compound, namely β-D-2′-CH3-riboG at a dose level of 10 mg/kg at a dose concentration of 5 mg/mL, either via an intravenous bolus (3 monkeys, IV), or via oral gavage (3 monkeys, PO). Each dosing syringe was weighed before dosing to gravimetrically determine the quantity of formulation administered. Urine samples were collected via pan catch at the designated intervals (approximately 18-0 hours pre-dose, 0-4, 4-8 and 8-12 hours post-dosage) and processed. Blood samples were collected as well (pre-dose, 0.25, 0.5, 1, 2, 3, 6, 8, 12 and 24 hours post-dosage) via the chronic venous catheter and VAP or from a peripheral vessel if the chronic venous catheter procedure should not be possible. The blood and urine samples were analyzed for the maximum concentration (Cmax), time when the maximum concentration was achieved (Tmax), area under the curve (AUC), half life of the dosage concentration (T1/2), clearance (CL), steady state volume and distribution (Vss) and bioavailability (F), which are tabulated in Tables 2 and 3, and graphically illustrated in FIGS. 2 and 3, respectively.

[2] = test system: Human bone marrow cells (BFU-E); assay: Human bone marrow toxicity, BFU-E clonogenic assay; assay type: cell-based; settings: Bone marrow cell; human bone marrow colony formation, 14 to 18 days
Source text: Human bone marrow cells were collected from normal healthy volunteers and the mononuclear population was separated by Ficoll-Hypaque gradient centrifugation as described previously by Sommadossi J-P, Carlisle R. “Toxicity of 3′-azido-3′-deoxythymidine and 9-(1,3-dihydroxy-2-propoxymethyl)guanine for normal human hematopoietic progenitor cells in vitro” Antimicrobial Agents and Chemotherapy 1987; 31:452-454; and Sommadossi J-P, Schinazi R F, Chu C K, Xie M-Y. “Comparison of cytotoxicity of the (−)- and (+)-enantiomer of 2′,3′-dideoxy-3′-thiacytidine in normal human bone marrow progenitor cells” Biochemical Pharmacology 1992; 44:1921-1925. The culture assays for CFU-GM and BFU-E were performed using a bilayer soft agar or methylcellulose method. Drugs were diluted in tissue culture medium and filtered. After 14 to 18 days at 37° C. in a humidified atmosphere of 5% CO2 in air, colonies of greater than 50 cells were counted using an inverted microscope. The results in Table 4 are presented as the percent inhibition of colony formation in the presence of drug compared to solvent control cultures.

BVDV = assay: Plaque Reduction Assay; assay type: cell-based, Bovine Viral Diarrhea virus; settings: Bovine viral diarrhea virus isolates and strains
Procedure: For each compound the effective concentration was determined in duplicate 24-well plates by plaque reduction assays. Cell monolayers were infected with 100 PFU/well of virus. Then, serial dilutions of test compounds in MEM supplemented with 2% inactivated serum and 0.75% of methyl cellulose were added to the monolayers. Cultures were further incubated at 37° C. for 3 days, then fixed with 50% ethanol and 0.8% Crystal Violet, washed and air-dried. FIG. 7 is a graphical illustration of the results from the Plaque Reduction Assay. FIG. 8 is an image of BVDV plaque formation in the presence of increasing concentrations of β-D-2′-CH3-riboU.

[3] = test system: Bovine Viral Diarrhea virus (BVDV); assay: microbe, parasite or virus in culture; assay type: cell-based; settings: Bovine viral diarrhea virus isolates and strains, read-out: BVDV EC50
in vitro = settings: cattle
[4] = cynomolgus monkey, blood, Cynomolgus monkeys, IV 10 mg/kg
[5] = cynomolgus monkey, blood, Cynomolgus monkeys, PO 10 mg/kg

**Q.** For `CC1(O)[C@@H](O)[C@@H](CO)O[C@H]1n1cnc2c(=O)[nH]c(N)nc21` (stereo partly drawn) [β-D-2′-CH3-riboG], which “Norm AUC” value ([1]; IV Monkey 1) is on record?
**A.** 293.2 ng·h/mL/mg

**Q.** What about the “Norm AUC” value ([1]; IV Monkey 2) of the same molecule?
**A.** 268.3 ng·h/mL/mg

**Q.** And the “Norm AUC” value ([1]; IV Monkey 3)?
**A.** 293.4 ng·h/mL/mg

**Q.** And the “Mean Norm AUC” value ([1]; IV)?
**A.** 284.9 ng·h/mL/mg

**Q.** And the “Norm AUC” value ([1]; PO Monkey 1)?
**A.** 26.1 ng·h/mL/mg

**Q.** What about the “Norm AUC” value ([1]; PO Monkey 2) of the same molecule?
**A.** 29.0 ng·h/mL/mg

**Q.** What about the “Norm AUC” value ([1]; PO Monkey 3) of the same molecule?
**A.** 61.3 ng·h/mL/mg

**Q.** What about the “Mean Norm AUC” value ([1]; PO) of the same molecule?
**A.** 38.8 ng·h/mL/mg

**Q.** And the F ([1]; Table 3, Cynomolgus monkeys, 10 mg/kg)?
**A.** 13.8%

**Q.** And the bioavailability ([1]; cynomolgus monkey, blood, 10 mg/kg, Table 2, monkeys, PO vs IV, read-out: F (oral bioavailability))?
**A.** 13.6%

**Q.** What about the AUC ([1]; cynomolgus monkey, blood, iv, 10 mg/kg, Cynomolgus monkeys, IV 10 mg/kg) of the same molecule?
**A.** 8760 ± 4210 ng·h/mL

**Q.** What about the AUC ([1]; cynomolgus monkey, blood, iv, 10 mg/kg, IV Monkey 1, dose 46.44 mg (10 mg/kg)) of the same molecule?
**A.** 13600 ng·h/mL

**Q.** And the AUC ([1]; cynomolgus monkey, blood, iv, 10 mg/kg, IV Monkey 2, dose 24.53 mg (10 mg/kg))?
**A.** 6580 ng·h/mL

**Q.** What about the AUC ([1]; cynomolgus monkey, blood, iv, 10 mg/kg, IV Monkey 3, dose 20.72 mg (10 mg/kg)) of the same molecule?
**A.** 6080 ng·h/mL

**Q.** And the AUC ([1]; cynomolgus monkey, blood, po, 10 mg/kg, Cynomolgus monkeys, PO 10 mg/kg)?
**A.** 1170 ± 590 ng·h/mL

**Q.** What about the AUC ([1]; cynomolgus monkey, blood, po, 10 mg/kg, PO Monkey 1, dose 29.04 mg (10 mg/kg)) of the same molecule?
**A.** 758 ng·h/mL

**Q.** What about the AUC ([1]; cynomolgus monkey, blood, po, 10 mg/kg, PO Monkey 2, dose 30.93 mg (10 mg/kg)) of the same molecule?
**A.** 898 ng·h/mL

**Q.** What about the AUC ([1]; cynomolgus monkey, blood, po, 10 mg/kg, PO Monkey 3, dose 30.04 mg (10 mg/kg)) of the same molecule?
**A.** 1840 ng·h/mL

**Q.** What about the Cmax [1, 4] of the same molecule?
**A.** 6950 ± 1890 ng/mL

**Q.** What about the Tmax [1, 4] of the same molecule?
**A.** 0.25 h

**Q.** And the clearance [1, 4]?
**A.** 21.3 mL/min/kg

**Q.** What about the half-life [1, 4] of the same molecule?
**A.** 7.9 ± 5.4 h

**Q.** And the Vd ([1]; cynomolgus monkey, blood, Cynomolgus monkeys, IV 10 mg/kg, read-out: Vss)?
**A.** 2.09 ± 0.54 L/kg

**Q.** And the Cmax [1, 5]?
**A.** 218 ± 132 ng/mL

**Q.** What about the Tmax [1, 5] of the same molecule?
**A.** 2 ± 1 h

**Q.** And the half-life [1, 5]?
**A.** 10.3 ± 4.1 h

**Q.** And the IC50 [2]?
**A.** > 100 µM

**Q.** And the EC90 (BVDV; 72 h, concentration to obtain 90% virus suppression, 3 days, read-out: EC90)?
**A.** < 9 µM

**Q.** What about the EC90 (BVDV; Table 13, BVDV, 90% virus suppression, read-out: Plaque Reduction (EC90)) of the same molecule?
**A.** < 9 µM

**Q.** And the EC50 [3]?
**A.** 2 µM

**Q.** And the CC50 (in vitro)?
**A.** 100 µM
